What was measured:
lipoxygenase (LOX) [1] = assay: Lipoxygenase activity, carnation microsomal membranes; assay type: biochemical
Source text: (§1) This Example illustrates the inhibition of lipoxygenase (LOX) activity by the glucose ester of ferulic acid.

lipoxygenase (LOX) [2] = assay: Lipoxygenase activity, bean cotyledon membrane and cytosol; assay type: biochemical
Source text: as §1

[3] = Radical scavenging in a chemical system; settings: tests with a chemical system
[4] = test system: petals of carnation flowers; assay: In vivo prevention of ethylene formation in carnation petals after incubation with ACC; settings: 1 mM taken up transpirationally
Description: This Example illustrates the use of the glucose ester of ferulic acid for in vivo prevention of ethylene formation in carnations.
The glucose ester of ferulic acid (1 mM), isolated as described in Example 1, was taken up transpirationally into petals of carnation flowers. Ethylene production was determined as a percentage of the ethylene produced by untreated control petals at various times after incubation with ACC.

[5] = test system: Microsomes from senescing carnation flowers; assay: Inhibition of ethylene formation in vitro in carnation microsomes; assay type: biochemical
Description: This Example illustrates the inhibition of ethylene formation in vitro by the glucose ester of ferulic acid.
Microsomes from senescing carnation flowers were treated with varying quantities of the glucose ester of ferulic acid, isolated as described in Example 1, and the production of ethylene was determined as a percentage of the control production of ethylene in the absence of added ferulic acid ester

With `COc1cc(/C=C/C(=O)O[C@@H]2O[C@H](CO)[C@@H](O)[C@H](O)[C@H]2O)ccc1O` [glucose ester of ferulic acid] the “inhibition of lipoxygenase activity derived from carnation (in words)” value (lipoxygenase (LOX) [1]; 40 μM solution) was “almost complete inhibition”, the “Lipoxygenase activity (% of control)” value (lipoxygenase (LOX) [1]; 100 μg membrane protein from Stage IV carnation, 40 μM) was 1.8 % of control and the “effect against LOX from other plant systems including bean cotyledons (in words)” value (lipoxygenase (LOX) [2]) was “effective”. The “Lipoxygenase activity (% of control)” value (lipoxygenase (LOX) [2]; 10 μg cytosol protein of 9 d bean cotyledon, 50 μM) was 48.4 % of control, the “Lipoxygenase activity (% of control)” value (lipoxygenase (LOX) [2]; 10 μg cytosol protein of 9 d bean cotyledon, 100 μM) was 35.9 % of control and the “Lipoxygenase activity (% of control)” value (lipoxygenase (LOX) [2]; 60 μg membrane protein of 9 d bean cotyledon, 50 μM) was 46.3 % of control. For the same compound, the “Lipoxygenase activity (% of control)” value (lipoxygenase (LOX) [2]; 60 μg membrane protein of 9 d bean cotyledon, 100 μM) was 37.8 % of control, the “effect on enzyme activity in membrane and cytosol preparations (in words)” value (lipoxygenase (LOX) [2]; 100 μm concentrations, all experiments) was “caused an inhibition of enzyme activity” and the “radical scavenger activity (in words)” value [3] was “shown promise as a full radial scavenger”. For the same compound, the “% Inhibition of ethylene production” value ([4]; 12 hrs after treatment) was 100%, the “% Inhibition of ethylene production” value ([4]; 16 hrs after treatment) was 97.3% and the “% Inhibition of ethylene production” value ([4]; 21 hrs after treatment) was 90.4%. The “% Inhibition of ethylene production” value ([4]; 26 hrs after treatment) was 81.7%, the “Ethylene Production” value ([5]; Control + 10 μM of Additive) was 0.518 ± 0.019 n1.100 μg^-1 protein h^-1 and the “Ethylene Production % Control” value ([5]; Control + 10 μM of Additive) was 53.9%. For the same compound, the “Ethylene Production” value ([5]; Control + 50 μM of Additive) was 0.014 ± 0.005 n1.100 μg^-1 protein h^-1, the “Ethylene Production % Control” value ([5]; Control + 50 μM of Additive) was 2.0% and the “Ethylene Production” value ([5]; Control + 100 μM of Additive) was 0 n1.100 μg^-1 protein h^-1. The “Ethylene Production % Control” value ([5]; Control + 100 μM of Additive) was 0% and the “ethylene formation (in words)” value ([5]; concentration of 100 μM) was “zero”.

Source: patent US5087417A, “Control of senescence in fruits, vegetables and flowers” (University of Waterloo, priority 1986, dated 1992)
